What is called melting point is the temperature of the solid-liquid transition.

This passage reports melting point results from a melting point compilation (Tetko et al.).

Consider `COc1cc(O)c(C(=O)c2ccccc2)cc1S(=O)(=O)O`, for which the melting point worked out at 170 °C.

Turning to `Cc1cc(C)c(C=O)c(C)c1`, the melting point is 14 °C.

The molecule `C1CCCCCCCCCCCC1` showed a melting point of 23 °C.

Take `CCCCCCCCCCCCCCCCI`: the melting point was determined as 22 °C.

`O=C1c2ccccc2C(=O)N1SC(Cl)(Cl)Cl` gave a melting point of 178 °C.

Turning to `O=C(O)c1cscc1C(=O)O`, the melting point lay in the range of 227 to 231 °C.

For `COc1c(OC)c(OC(C)=O)c2cc(Cl)ccc2c1OC(C)=O`, the melting point turned out to be 91.5 °C.

As for `COC(=O)CCCCCCC(=O)OC`, the melting point was -3.1 °C.

The molecule `COP(=S)(OC)Oc1c(Cl)cc(C)cc1Cl` came in with a melting point of 79 °C.

`Clc1ncnc2sccc12` showed a melting point of 105 °C.

In turn, `CC12CCc3c(ccc4cc(O)ccc34)C1(C)CCC2=O` (stereo not drawn) showed a melting point of 261 °C.

The molecule `BrCCC(Br)CBr` (stereo not drawn) gave a melting point of -18 °C.

`CC(C)OC(=O)N=NC(=O)OC(C)C` registered a melting point of 3 to 5 °C.

Regarding `CC(=O)c1cc(C)c(Br)cc1O`, the melting point came out at 88 °C.

Molecule `Brc1cc(Br)c(Oc2ccccc2)c(Br)c1` registered a melting point of 85 to 86 °C.

In turn, `Cc1cc(C)c(N)cc1C` came in with a melting point of 68 °C.

`O=C1Cc2ccc3ccccc3c21` showed a melting point of 97 °C.

In turn, `NC(=S)NC1CCCCC1` displayed a melting point of 162 °C.

In turn, `FC(F)(F)c1cc(Cl)c2cc(Cl)ccc2n1` registered a melting point of 104 to 107 °C.

In turn, `CC1C/C(=C\c2ccc([N+](=O)[O-])cc2)C(=O)/C(=C/c2ccc([N+](=O)[O-])cc2)C1` (stereo not drawn) gave a melting point of 192 to 193 °C.

The molecule `CCOC(=O)c1sc(-c2ccccc2)nc1C` showed a melting point of 36 to 39 °C.

As to `NC(=S)c1ccno1`, the melting point was found to be 163 °C.

As for `O=C(O)c1ccno1`, the melting point was determined as 143 °C.

For the molecule `COC(=O)CCCCCC(=O)OC`, the melting point is -21 °C.

`COc1cc(OC(C)=O)c2c(=O)c(OC(C)=O)c(-c3ccc(OCc4ccccc4)c(OC(C)=O)c3)oc2c1` yielded a melting point of 182 to 192 °C.

`CN1CCCC1C(O)(c1ccccc1)c1ccccc1` (stereo not drawn) gave a melting point of 66 to 69 °C.

Turning to `CC(=O)NC(Cc1ccccc1F)C(=O)O` (racemic), the melting point fell in the range of 153 to 155 °C.

As to `Cc1nn(C)c(C)c1I`, the melting point was 72 to 74 °C.

Take `Cn1c(/C(C#N)=C/c2cccc(O)c2)nc2ccccc21`: the melting point was found to be 240 °C.

Consider `CC(=O)Nc1ccc(N)cn1`, for which the melting point is 154 °C.

Molecule `CCOc1ccc(-c2nnc3n2NC(c2ccccc2)S3)cc1` (stereo not drawn) showed a melting point of 118 °C.

`Cc1ccc(C(C=O)C=O)cc1` gave a melting point of 128 to 134 °C.

`CC(=O)Nc1ccc(N=Nc2ccc(N)cc2)cc1`: the melting point is 212 °C.

Consider `CC(=O)OCC1OC(Oc2ccc([N+](=O)[O-])cc2)C(OC(C)=O)C(OC(C)=O)C1OC(C)=O` (stereo not drawn), for which the melting point came to 177 °C.

`COC(=O)c1ccc(C(N)=NO)cc1`: the melting point was in the range of 167 to 168 °C.

`C#CC1(O)CCC2C3CCC4=Cc5oncc5CC4(C)C3CCC21C` (stereo not drawn) showed a melting point of 235 °C.

`Nc1ncc(Br)cc1Br` came in with a melting point of 104 °C.

Regarding `O=Cc1ccc(-c2ccc(C(=O)O)cc2)cc1`, the melting point came out at 150 °C.

In turn, `Cc1ccc2c(c1Cc1ccccc1)CCC1C2CCC2CCCCC21C` (stereo not drawn) registered a melting point of 95 °C.

With `Cc1ccc(NN=C2SC(=N)NC2=O)cc1`, the melting point came out at 265 °C.

On to `ClCc1ccc(Cl)nc1`, for which the melting point is 40 °C.

Turning to `C#CC1(O)CCC2(C)C(CCC3C2CCC2(C)C3CCC2(C)O)C1` (stereo not drawn), the melting point came out at 190 °C.

Take `COC(=O)C=Cc1ccc(C=CC(=O)OC)c([N+](=O)[O-])c1`: the melting point is 166 °C.

`O=C(c1cccs1)c1noc(-c2ccc3ccccc3c2)c1S(=O)(=O)c1ccccc1` displayed a melting point of 128 °C.

As for `O=COCC=Cc1ccccc1`, the melting point is 0 °C.

As for `COc1cc(OC)nc(NC(=O)NS(=O)(=O)c2ncccc2C(F)(F)F)n1`, the melting point amounted to 180 °C.

As to `CCOC(=O)c1cc(-c2ccc(Cl)cc2)oc1C=O`, the melting point stood at 188 °C.

Molecule `CCOC(=O)c1c[nH]cc1C` returned a melting point of 74 °C.

Molecule `C=C(C)C1CC=C(C)C(=NO)C1` (stereo not drawn) showed a melting point of 71.5 °C.

For the molecule `N#Cc1c(-c2cccc(O)c2)c(C#N)c(=O)n(N)c1N`, the melting point was 323 °C.

With `O=[N+]([O-])c1ccccc1OCCN1CCOCC1`, the melting point lay in the range of 44 to 45 °C.

`NNC(=S)Nc1ccc(Cl)cc1Cl` had a melting point of 169 °C.

`CSC(Cl)=NS(=O)(=O)c1ccc(C)cc1`: the melting point is 90 to 91 °C.

Molecule `CC(=O)SCC(C)C(=O)N1CCCC1C(=O)O` (stereo not drawn) came in with a melting point of 76 to 82 °C.

`Oc1ccc(F)c(F)c1F`: the melting point turned out to be 32 °C.

Consider `CCC1(O)CC2CN(CCc3c([nH]c4ccccc34)C(C(=O)OC)(c3cc4c(cc3OC)N(C)C3C(O)(C(=O)OC)C(OC(C)=O)C5(CC)C=CCN6CCC43C65)C2)C1` (stereo not drawn), for which the melting point was 267 °C.

Molecule `CC(=O)C1CCC2(C)C(CC(=O)C3C4CCC(=O)C4(C)CCC32)C1` (stereo not drawn) registered a melting point of 237 °C.

The molecule `CC(O)c1c(F)c(F)c(F)c(F)c1F` (stereo not drawn) gave a melting point of 34 to 37 °C.

Consider `Cc1c(C)c2c(c3c1C(=O)C3)CC2=O`, for which the melting point came out at 207 °C.

`Cn1ccccc1=O` returned a melting point of 31 °C.

In the case of `COc1ccc(/C=N/c2ccc(-c3ccc(/N=N/c4ccccc4)cc3)cc2)cc1`, the melting point was in the range of 214 to 215 °C.

The molecule `Nc1c(CN2CCCCCC2)c(=O)oc2ccccc12` yielded a melting point of 153 °C.

`C1CCC2C(C1)CCC1C3CCCCC3CCC21` (stereo not drawn) came in with a melting point of 115 °C.

`Cc1cc(N=O)ccc1N=O` gave a melting point of 137 °C.

With `O=c1[nH]c2ccc(Br)cc2c(=O)o1`, the melting point is 285 to 290 °C.

As for `N=C1NC(=O)C(=NNc2ccc(Br)cc2)S1`, the melting point came out at 284 °C.

Molecule `Fc1c(F)c(CCl)c(F)c(F)c1CCl` had a melting point of 77 to 78 °C.

`CCOc1ccc([N+](=O)[O-])cc1N`: the melting point turned out to be 96.5 °C.

`O=C(O)C1(O)CC(O)C(O)C(O)C1` (stereo not drawn) showed a melting point of 166 to 168 °C.

`CC(=O)N[C@H]1C(O)O[C@H](CO)[C@@H](O)[C@@H]1O` (stereo partly drawn): the melting point stood at 211 °C.

Molecule `CC(C)(C)OC(=O)N[C@@H](Cc1ccc(Cl)cc1)C(=O)O` yielded a melting point of 110 °C.

In turn, `COc1cc2nc(N3CCN(C(=O)C4CCCO4)CC3)nc(N)c2cc1OC` (stereo not drawn) registered a melting point of 273 °C.

`O=S(=O)(Cl)c1ccc(-c2ccccc2)s1` gave a melting point of 85 to 87 °C.

The molecule `CCOC(=O)C=Cc1ccccc1` registered a melting point of 7 °C.

`COC1(C)OC(CNc2ccc(S(C)(=O)=O)cc2)C(CNc2ccc(S(C)(=O)=O)cc2)OC1(C)OC` (stereo not drawn) yielded a melting point of 194 to 195 °C.

In the case of `CC12CCC(CC/C1=N\O)C2(C)C` (stereo not drawn), the melting point stood at 164 °C.

The molecule `c1ccc2c(c1)OCCOCCOCCOCCOc1ccccc1OCCOCCOCCOCCO2` returned a melting point of 104 to 108 °C.

On to `O=C(CBr)c1cc(C(=O)CBr)cc(C(=O)CBr)c1`, for which the melting point turned out to be 111 °C.
